Reference: publication PMC4659708 (Nature, 2015)

Columns and labels:
[1] = molecular target: T1, α1 glycine receptor (GlyREM) (Danio rerio, UniProt O93430, DEL334-400/INS333AGT); assay: TEVC in Xenopus oocytes, agonist activation; assay type: cell-based
T1 sequence (O93430 with tags, fused parts or gaps INS333AGT/DEL334-400): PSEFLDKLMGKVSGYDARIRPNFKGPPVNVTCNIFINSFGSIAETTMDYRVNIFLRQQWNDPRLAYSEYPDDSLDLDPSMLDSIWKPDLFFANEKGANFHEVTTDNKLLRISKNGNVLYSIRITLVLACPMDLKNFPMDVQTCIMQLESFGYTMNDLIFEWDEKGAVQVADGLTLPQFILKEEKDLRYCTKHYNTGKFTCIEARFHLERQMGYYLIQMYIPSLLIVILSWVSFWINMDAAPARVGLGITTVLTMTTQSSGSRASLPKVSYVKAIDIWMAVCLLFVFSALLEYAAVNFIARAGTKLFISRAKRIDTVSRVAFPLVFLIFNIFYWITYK

[2] = molecular target: T1, α1 glycine receptor (GlyREM); assay: TEVC in Xenopus oocytes, block of glycine current at […]; assay type: cell-based; settings: read-out: % inhibition at 1 mM

| Compound | EC50 [1] | inhibition at 1000 µM [2] |
| --- | --- | --- |
| NCC(=O)O [gly, glycine] | 260 µM |  |
| C=C(C)[C@@H]1[C@H]2OC(=O)[C@@H]1[C@]1(O)C[C@H]3O[C@]34C(=O)O[C@H]2[C@]14C [ptx, picrotoxinin] |  | ~80% |
